Here are results for eight compounds from patent US11993578B2, “Pyrazole-3-carboxylic acid amide derivative and pest control agent” (KUMIAI CHEMICAL INDUSTRY CO., LTD., priority 2017, dated 2024).

The assay relates to Aphis gossypii. Kind of assay: Aphis gossypii killing test (Test Example 3). The note with it: 72 h, 500 ppm active ingredient, cucumber nursery plant with nymphs dipped, after 3 days, 25° C., read-out: percentage of dead insects. It counts as in vivo. As for the experimental part: [formula] The water-dispersible powder prepared in accordance with Formulation example 2 was diluted in water so that the concentration of the active ingredient was 500 ppm. A nursery plant of cucumber preliminarily inoculated with nymphs of Aphis gossypii was dipped in this liquid agent, and air-dried. The nursery plant of cucumber after the treatment was placed in a thermostatic chamber at 25° C., and the number of live insects was counted after 3 days, and the percentage of dead insects was determined by the calculation formula of numerical formula 1. The test was conducted singly.

On to `CC(C)C(=O)NC(=O)c1nn(-c2cccnc2)cc1OC(F)(F)C(F)OC(F)(F)F` (centres unmarked) [Compound A-2403, N-isobutyryl-1-(pyridine-3-yl)-4-[1,1,2-trifluoro-2-(trifluoromethoxy)ethoxy]-1H-pyrazole-3-carboxamide], for which the pest or weed control at 500 ppm is at least 50%. Then `NC(=O)c1nn(-c2cccnc2)cc1O` [Compound A-0001, 4-hydroxy-1-(pyridine-3-yl)-1H-pyrazole-3-carboxamide], with at least 50%; and `NC(=O)c1nn(-c2cccnc2)cc1OCc1ccccc1` [Compound A-0240, 4-benzyloxy-1-(pyridine-3-yl)-1H-pyrazole-3-carboxamide], with at least 50%.

Turning to `NC(=S)c1nn(-c2cccnc2)cc1OC(F)(F)C(F)OC(F)(F)F` (centres unmarked) [Compound A-5436, 1-(pyridine-3-yl)-4-[1,1,2-trifluoro-2-(trifluoromethoxy)ethoxy]-1H-pyrazole-3-carbothioamide], the pest or weed control at 500 ppm was at least 50%.

With `NC(=O)c1nn(-c2ccc[n+]([O-])c2)cc1OC(F)(F)C(F)OC(F)(F)F` (centres unmarked) [Compound A-5510, 3-(3-carbamoyl-4-[1,1,2-trifluoro-2-(trifluoromethoxy)ethoxy]-1H-pyrazole-1-yl)pyridine-1-oxide], the pest or weed control at 500 ppm was at least 50%. For `NC(=O)c1nn(-c2cccnc2)cc1OCC(F)(F)C(F)(F)F` [Compound A-0044, 4-(2,2,3,3,3-pentafluoropropoxy)-1-(pyridine-3-yl)-1H-pyrazole-3-carboxamide] the value was at least 50%; for `NC(=O)c1nn(-c2cccnc2)cc1OC(F)(F)C(F)OC(F)(F)F` (centres unmarked) [Compound A-0071, 1-(pyridine-3-yl)-4-[1,1,2-trifluoro-2-(trifluoromethoxy)ethoxy]-1H-pyrazole-3-carboxamide], at least 50%; for `CC(C)(C)CCOc1cn(-c2cccnc2)nc1C(N)=O` [Compound A-0017, 4-(3,3-dimethylbutoxy)-1-(pyridine-3-yl)-1H-pyrazole-3-carboxamide], at least 50%.
